“And” between values parts separate entries of the source, which are not always exact repeats. Equal entries are not always repeated.
Legend:
Experiment in all cases: biochemical
Type in all cases: binding
SfurOBP2 = SfurOBP2 (Sogatella furcifera, UniProt V5T759)
Method in brief: (§1)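 First, 2.0 µM protein in 50 mM Tris-HCl (pH 7.4) was titrated with 1-NPN to obtain K1-NPN. Then odorants (2–20 µM final) competed against 2.0 µM 1-NPN, with fluorescence (ex 337 nm) recorded after 2 min. Ki was computed from IC50 via Ki = IC50/(1 + [1-NPN]/K1-NPN).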

SfurOBP11 = SfurOBP11 (Sogatella furcifera, UniProt V5T6E3)
SfurOBP11, sequence (V5T6E3 entry or part of it): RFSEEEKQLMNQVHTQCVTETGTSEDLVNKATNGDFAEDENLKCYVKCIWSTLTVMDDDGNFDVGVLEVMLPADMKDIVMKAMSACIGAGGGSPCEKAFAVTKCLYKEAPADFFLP
Method in brief: as §1

SfurOBP3 = SfurOBP3 (Sogatella furcifera, UniProt V5T818); conditions: for Fluorescence competitive binding assay, fluorescence intensity: OBP3, three replicate columns
SfurOBP3, sequence (V5T818 entry or part of it): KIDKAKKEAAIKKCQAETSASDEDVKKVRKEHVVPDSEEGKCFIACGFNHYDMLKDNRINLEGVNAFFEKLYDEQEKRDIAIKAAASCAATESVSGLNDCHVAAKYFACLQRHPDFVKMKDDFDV
Method in brief: as §1

SfurOBP1 = SfurOBP1 (Sogatella furcifera, UniProt V5T8N5); conditions: for Fluorescence competitive binding assay, fluorescence intensity: OBP1, three replicate columns
SfurOBP1, sequence (V5T8N5 entry or part of it): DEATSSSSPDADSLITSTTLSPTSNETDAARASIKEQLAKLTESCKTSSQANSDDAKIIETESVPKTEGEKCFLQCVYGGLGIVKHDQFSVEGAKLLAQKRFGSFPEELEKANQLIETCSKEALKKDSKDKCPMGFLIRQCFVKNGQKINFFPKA
Method in brief: as §1

SfurOBP2, sequence (V5T759 entry or part of it): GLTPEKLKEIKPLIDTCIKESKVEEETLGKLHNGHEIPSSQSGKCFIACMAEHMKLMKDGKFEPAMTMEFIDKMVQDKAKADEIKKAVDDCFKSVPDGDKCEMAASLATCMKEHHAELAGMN

SMILES: C/C(=C\CO)CCC[C@H](C)CCC[C@H](C)CCCC(C)C [plant alcohol]
- IC50 (SfurOBP2; SfurOBP2, protein and 1-NPN both 2.0 µM, competitor 2-20 µM, read-out: IC50): > 20 µM
- Fluorescence competitive binding assay, OBP2 (raw fluorescence reading) (SfurOBP2; ligand concentration 2 (unit not given), replicate column 1 of 3): 15935
- Fluorescence competitive binding assay, OBP2 (raw fluorescence reading) (SfurOBP2; ligand concentration 2 (unit not given), replicate column 2 of 3): 15877
- Fluorescence competitive binding assay, OBP2 (raw fluorescence reading) (SfurOBP2; ligand concentration 2 (unit not given), replicate column 3 of 3): 16010
- Fluorescence competitive binding assay, OBP2 (raw fluorescence reading) (SfurOBP2; ligand concentration 4 (unit not given), replicate column 1 of 3): 16483
- Fluorescence competitive binding assay, OBP2 (raw fluorescence reading) (SfurOBP2; ligand concentration 4 (unit not given), replicate column 2 of 3): 17483
- Fluorescence competitive binding assay, OBP2 (raw fluorescence reading) (SfurOBP2; ligand concentration 4 (unit not given), replicate column 3 of 3): 15472
- Fluorescence competitive binding assay, OBP2 (raw fluorescence reading) (SfurOBP2; ligand concentration 6 (unit not given), replicate column 1 of 3): 19539
- Fluorescence competitive binding assay, OBP2 (raw fluorescence reading) (SfurOBP2; ligand concentration 6 (unit not given), replicate column 2 of 3): 15243
- Fluorescence competitive binding assay, OBP2 (raw fluorescence reading) (SfurOBP2; ligand concentration 6 (unit not given), replicate column 3 of 3): 16407
- Fluorescence competitive binding assay, OBP2 (raw fluorescence reading) (SfurOBP2; ligand concentration 8 (unit not given), replicate column 1 of 3): 19867
- Fluorescence competitive binding assay, OBP2 (raw fluorescence reading) (SfurOBP2; ligand concentration 8 (unit not given), replicate column 2 of 3): 20728
- Fluorescence competitive binding assay, OBP2 (raw fluorescence reading) (SfurOBP2; ligand concentration 8 (unit not given), replicate column 3 of 3): 17103
- Fluorescence competitive binding assay, OBP2 (raw fluorescence reading) (SfurOBP2; ligand concentration 10 (unit not given), replicate column 1 of 3): 20161
- Fluorescence competitive binding assay, OBP2 (raw fluorescence reading) (SfurOBP2; ligand concentration 10 (unit not given), replicate column 2 of 3): 19779
- Fluorescence competitive binding assay, OBP2 (raw fluorescence reading) (SfurOBP2; ligand concentration 10 (unit not given), replicate column 3 of 3): 18765
- Fluorescence competitive binding assay, OBP2 (raw fluorescence reading) (SfurOBP2; ligand concentration 12 (unit not given), replicate column 1 of 3): 19327
- Fluorescence competitive binding assay, OBP2 (raw fluorescence reading) (SfurOBP2; ligand concentration 12 (unit not given), replicate column 2 of 3): 19917
- Fluorescence competitive binding assay, OBP2 (raw fluorescence reading) (SfurOBP2; ligand concentration 12 (unit not given), replicate column 3 of 3): 19157
- Fluorescence competitive binding assay, OBP2 (raw fluorescence reading) (SfurOBP2; ligand concentration 14 (unit not given), replicate column 1 of 3): 20768
- Fluorescence competitive binding assay, OBP2 (raw fluorescence reading) (SfurOBP2; ligand concentration 14 (unit not given), replicate column 2 of 3): 19570
- Fluorescence competitive binding assay, OBP2 (raw fluorescence reading) (SfurOBP2; ligand concentration 14 (unit not given), replicate column 3 of 3): 20399
- Fluorescence competitive binding assay, OBP2 (raw fluorescence reading) (SfurOBP2; ligand concentration 16 (unit not given), replicate column 1 of 3): 18977
- Fluorescence competitive binding assay, OBP2 (raw fluorescence reading) (SfurOBP2; ligand concentration 16 (unit not given), replicate column 2 of 3): 19385
- Fluorescence competitive binding assay, OBP2 (raw fluorescence reading) (SfurOBP2; ligand concentration 16 (unit not given), replicate column 3 of 3): 18242
- Fluorescence competitive binding assay, OBP2 (raw fluorescence reading) (SfurOBP2; ligand concentration 18 (unit not given), replicate column 1 of 3): 20374
- Fluorescence competitive binding assay, OBP2 (raw fluorescence reading) (SfurOBP2; ligand concentration 18 (unit not given), replicate column 2 of 3): 20001
- Fluorescence competitive binding assay, OBP2 (raw fluorescence reading) (SfurOBP2; ligand concentration 18 (unit not given), replicate column 3 of 3): 19071
- Fluorescence competitive binding assay, OBP2 (raw fluorescence reading) (SfurOBP2; ligand concentration 20 (unit not given), replicate column 1 of 3): 20399
- Fluorescence competitive binding assay, OBP2 (raw fluorescence reading) (SfurOBP2; ligand concentration 20 (unit not given), replicate column 2 of 3): 20700
- Fluorescence competitive binding assay, OBP2 (raw fluorescence reading) (SfurOBP2; ligand concentration 20 (unit not given), replicate column 3 of 3): 18461
- IC50 (SfurOBP11; SfurOBP11, protein and 1-NPN both 2.0 µM, competitor 2-20 µM, read-out: IC50): 3.5 µM
- Fluorescence intensity, fluorescence competitive binding assay, OBP11 (SfurOBP11; ligand concentration 2, replicate 1): 16266
- Fluorescence intensity, fluorescence competitive binding assay, OBP11 (SfurOBP11; ligand concentration 2, replicate 2): 15087
- Fluorescence intensity, fluorescence competitive binding assay, OBP11 (SfurOBP11; ligand concentration 2, replicate 3): 17001
- Fluorescence intensity, fluorescence competitive binding assay, OBP11 (SfurOBP11; ligand concentration 4, replicate 1): 17687
- Fluorescence intensity, fluorescence competitive binding assay, OBP11 (SfurOBP11; ligand concentration 4, replicate 2): 17526
- Fluorescence intensity, fluorescence competitive binding assay, OBP11 (SfurOBP11; ligand concentration 4, replicate 3): 17848
- Fluorescence intensity, fluorescence competitive binding assay, OBP11 (SfurOBP11; ligand concentration 6, replicate 1): 16356
- Fluorescence intensity, fluorescence competitive binding assay, OBP11 (SfurOBP11; ligand concentration 6, replicate 2): 18409
- Fluorescence intensity, fluorescence competitive binding assay, OBP11 (SfurOBP11; ligand concentration 6, replicate 3): 17383
- Fluorescence intensity, fluorescence competitive binding assay, OBP11 (SfurOBP11; ligand concentration 8, replicate 1): 17184
- Fluorescence intensity, fluorescence competitive binding assay, OBP11 (SfurOBP11; ligand concentration 8, replicate 2): 18342
- Fluorescence intensity, fluorescence competitive binding assay, OBP11 (SfurOBP11; ligand concentration 8, replicate 3): 18652
- Fluorescence intensity, fluorescence competitive binding assay, OBP11 (SfurOBP11; ligand concentration 10, replicate 1): 18889
- Fluorescence intensity, fluorescence competitive binding assay, OBP11 (SfurOBP11; ligand concentration 10, replicate 2): 17441
- Fluorescence intensity, fluorescence competitive binding assay, OBP11 (SfurOBP11; ligand concentration 10, replicate 3): 20338
- Fluorescence intensity, fluorescence competitive binding assay, OBP11 (SfurOBP11; ligand concentration 12, replicate 1): 19011
- Fluorescence intensity, fluorescence competitive binding assay, OBP11 (SfurOBP11; ligand concentration 12, replicate 2): 18892
- Fluorescence intensity, fluorescence competitive binding assay, OBP11 (SfurOBP11; ligand concentration 12, replicate 3): 20835
- Fluorescence intensity, fluorescence competitive binding assay, OBP11 (SfurOBP11; ligand concentration 14, replicate 1): 21007
- Fluorescence intensity, fluorescence competitive binding assay, OBP11 (SfurOBP11; ligand concentration 14, replicate 2): 21377
- Fluorescence intensity, fluorescence competitive binding assay, OBP11 (SfurOBP11; ligand concentration 14, replicate 3): 20817
- Fluorescence intensity, fluorescence competitive binding assay, OBP11 (SfurOBP11; ligand concentration 16, replicate 1): 23140
- Fluorescence intensity, fluorescence competitive binding assay, OBP11 (SfurOBP11; ligand concentration 16, replicate 2): 21703
- Fluorescence intensity, fluorescence competitive binding assay, OBP11 (SfurOBP11; ligand concentration 16, replicate 3): 22422
- Fluorescence intensity, fluorescence competitive binding assay, OBP11 (SfurOBP11; ligand concentration 18, replicate 1): 27356
- Fluorescence intensity, fluorescence competitive binding assay, OBP11 (SfurOBP11; ligand concentration 18, replicate 2): 26038
- Fluorescence intensity, fluorescence competitive binding assay, OBP11 (SfurOBP11; ligand concentration 18, replicate 3): 25306
- Fluorescence intensity, fluorescence competitive binding assay, OBP11 (SfurOBP11; ligand concentration 20, replicate 1): 26659
- Fluorescence intensity, fluorescence competitive binding assay, OBP11 (SfurOBP11; ligand concentration 20, replicate 2): 25183
- Fluorescence intensity, fluorescence competitive binding assay, OBP11 (SfurOBP11; ligand concentration 20, replicate 3): 25906
- Fluorescence competitive binding assay, fluorescence intensity (SfurOBP3; ligand concentration 2): 81785 and 76872 and 83999
- Fluorescence competitive binding assay, fluorescence intensity (SfurOBP3; ligand concentration 4): 101881 and 87909 and 87470
- Fluorescence competitive binding assay, fluorescence intensity (SfurOBP3; ligand concentration 6): 71457 and 61006 and 51881
- Fluorescence competitive binding assay, fluorescence intensity (SfurOBP3; ligand concentration 8): 71819 and 64171 and 69972
- Fluorescence competitive binding assay, fluorescence intensity (SfurOBP3; ligand concentration 10): 63459 and 67080 and 84824
- Fluorescence competitive binding assay, fluorescence intensity (SfurOBP3; ligand concentration 12): 64327 and 73125 and 73637
- Fluorescence competitive binding assay, fluorescence intensity (SfurOBP3; ligand concentration 14): 85412 and 71741 and 71210
- Fluorescence competitive binding assay, fluorescence intensity (SfurOBP3; ligand concentration 16): 78313 and 80279 and 70309
- Fluorescence competitive binding assay, fluorescence intensity (SfurOBP3; ligand concentration 18): 77162 and 77902 and 55555
- Fluorescence competitive binding assay, fluorescence intensity (SfurOBP3; ligand concentration 20): 68113 and 75065 and 101895
- IC50 (SfurOBP3; SfurOBP3, protein and 1-NPN both 2.0 µM, competitor 2-20 µM, read-out: IC50): > 20 µM
- Fluorescence competitive binding assay, fluorescence intensity (SfurOBP1; ligand concentration 2 (μM)): 7330 and 7109 and 7550
- Fluorescence competitive binding assay, fluorescence intensity (SfurOBP1; ligand concentration 4 (μM)): 7885 and 9070 and 8350
- Fluorescence competitive binding assay, fluorescence intensity (SfurOBP1; ligand concentration 6 (μM)): 9355 and 9996 and 9183
- Fluorescence competitive binding assay, fluorescence intensity (SfurOBP1; ligand concentration 8 (μM)): 11640 and 10265 and 9349
- Fluorescence competitive binding assay, fluorescence intensity (SfurOBP1; ligand concentration 10 (μM)): 10389 and 10452 and 10917
- Fluorescence competitive binding assay, fluorescence intensity (SfurOBP1; ligand concentration 12 (μM)): 10679 and 10989 and 10151
- Fluorescence competitive binding assay, fluorescence intensity (SfurOBP1; ligand concentration 14 (μM)): 12105 and 10979 and 11552
- Fluorescence competitive binding assay, fluorescence intensity (SfurOBP1; ligand concentration 16 (μM)): 10141 and 15672 and 8010
- Fluorescence competitive binding assay, fluorescence intensity (SfurOBP1; ligand concentration 18 (μM)): 13868 and 12649 and 12554
- Fluorescence competitive binding assay, fluorescence intensity (SfurOBP1; ligand concentration 20 (μM)): 12803 and 13119 and 10975
- IC50 (SfurOBP1; SfurOBP1, protein and 1-NPN both 2.0 µM, competitor 2-20 µM, read-out: IC50): > 20 µM

From article PMC6409085, “Three odorant-binding proteins are involved in the behavioral response of Sogatella furcifera to rice plant volatiles” (PeerJ, 2019)
